Source: patent publication US20250092056A1, “URACIL DERIVATIVES HAVING VIRUS REPLICATION INHIBITORY ACTIVITY AND PHARMACEUTICAL COMPOSITION COMPRISING THE SAME” (Shionogi & Co., Ltd., priority 2022, published 2025)
Read-outs that look alike come from different tables or passages of the source.

Key:
SARS-CoV-2 = experiment: Cytopathic effect (CPE) suppression effect confirmation test using HEK293T/ACE2-TMPRSS2 cells; format: cell-based; conditions: Severe acute respiratory syndrome coronavirus 2, HEK-293T
[1] = molecular target: Recombinant SARS-CoV-2 3CL Protease (Severe acute respiratory syndrome coronavirus 2 (2019-nCoV) (SARS-CoV-2), UniProt P0DTD1); experiment: biochemical; format: biochemical; conditions: 50% SARS-CoV-2 3CL protease inhibitory concentration; read-out: IC50
[2] = 50% SARS-CoV-2 infected cell death inhibitory concentration, HEK293T/ACE2-TMPRSS2 cells, read-out: EC50
[3] = 72 h, read-out: EC50 (50% SARS-CoV-2 infected cell death inhibitory concentration), HEK293T/ACE2-TMPRSS2 cells, CPE suppression, CellTiter-Glo 2.0 after 3 days culture
[4] = 72 h, read-out: EC50 (50% SARS-CoV-2 infected cell death inhibitory concentration), class, HEK293T/ACE2-TMPRSS2 cells, CPE suppression, CellTiter-Glo 2.0 after 3 days culture
[5] = 72 h, HEK293T/ACE2-TMPRSS2 cells, CPE suppression, CellTiter-Glo 2.0 after 3 days culture, read-out: EC50 (50% SARS-CoV-2 infected cell death inhibitory concentration), class

Cc1cncc(N2C(=O)N(CC#N)CC3(COc4ccc(Cl)cc43)C2=O)c1 (racemic) [Compound I-282]
EC50 (SARS-CoV-2; [2]): < 100 nM | IC50 [1]: 2800 nM

N#CCn1c(N2CC[C@@](O)(C(F)F)C2)c(-c2ccc(F)c(Cl)c2)c(=O)n(-c2cncc(Cl)c2)c1=O (single isomer, unassigned) [Compound I-238]
EC50 (SARS-CoV-2; [3]): 4.62 nM | IC50 [1]: 0.97 nM

N#CCn1c(N2CC[C@](O)(C(F)F)C2)c(-c2ccc(F)c(Cl)c2)c(=O)n(-c2cncc(Cl)c2)c1=O (single isomer, unassigned) [Compound I-239]
EC50 (SARS-CoV-2; [3]): 3.15 nM | IC50 [1]: 0.63 nM

N#CCn1c(N2CC[C@@](O)(c3ccccc3)C2)c(-c2ccc(F)c(Cl)c2)c(=O)n(-c2cncc(Cl)c2)c1=O (single isomer, unassigned) [Compound I-240]
EC50 (SARS-CoV-2; [2]): < 100 nM | IC50 [1]: < 10 nM

N#CCn1c(N2CC[C@](O)(c3ccccc3)C2)c(-c2ccc(F)c(Cl)c2)c(=O)n(-c2cncc(Cl)c2)c1=O (single isomer, unassigned) [Compound I-241]
EC50 (SARS-CoV-2; [2]): < 100 nM | IC50 [1]: < 10 nM

C[C@@H](C#N)n1c(N2CC3(CCOC3)C2)c(-c2ccc(F)c(Cl)c2)c(=O)n(-c2cncc(Cl)c2)c1=O (single isomer, unassigned) [Compound I-262]
EC50 (SARS-CoV-2; [2]): < 100 nM | IC50 [1]: < 10 nM

C[C@H](C#N)n1c(N2CC(C(C)(C)O)C2)c(-c2ccc(F)c(Cl)c2)c(=O)n(-c2cncc(Cl)c2)c1=O (single isomer, unassigned) [Compound I-288]
EC50 (SARS-CoV-2; [2]): < 100 nM | IC50 [1]: < 10 nM

C[C@@]1(O)CCN(c2c(-c3ccc(F)c(Cl)c3)c(=O)n(-c3cncc(Cl)c3)c(=O)n2CC#N)C1 (single isomer, unassigned) [Compound I-294]
EC50 (SARS-CoV-2; [2]): < 100 nM | IC50 [1]: < 10 nM

N#CCn1c(N2CC[C@@](O)(C3CC3)C2)c(-c2ccc(F)c(Cl)c2)c(=O)n(-c2cncc(Cl)c2)c1=O (single isomer, unassigned) [Compound I-356]
EC50 (SARS-CoV-2; [2]): < 100 nM | IC50 [1]: < 10 nM

C[C@@H](C#N)n1c(N2CCC(F)(F)CC2)c(-c2ccc(F)c(Cl)c2)c(=O)n(-c2cncc(Cl)c2)c1=O (single isomer, unassigned) [Compound I-386]
EC50 (SARS-CoV-2; [2]): < 100 nM | IC50 [1]: < 10 nM

C[C@](O)(CCc1c(-c2ccc(F)c(Cl)c2)c(=O)n(-c2cncc(Cl)c2)c(=O)n1CC#N)C(F)F (single isomer, unassigned) [Compound I-392]
EC50 (SARS-CoV-2; [2]): < 100 nM | IC50 [1]: < 10 nM

C[C@@](O)(CCc1c(-c2ccc(F)c(Cl)c2)c(=O)n(-c2cncc(Cl)c2)c(=O)n1CC#N)C(F)F (single isomer, unassigned) [Compound I-393]
EC50 (SARS-CoV-2; [2]): < 100 nM | IC50 [1]: < 10 nM

C[C@@H](C#N)n1c(N2CC[C@@](O)(C(F)F)C2)c(-c2ccc(F)c(F)c2)c(=O)n(-c2cncc(Cl)c2)c1=O (single isomer, unassigned) [Compound I-419]
EC50 (SARS-CoV-2; [2]): < 100 nM | IC50 [1]: < 10 nM

C[C@H](C#N)n1c(N2CC[C@@](O)(C(F)F)C2)c(-c2ccc(F)c(Cl)c2)c(=O)n(-c2cncc(Cl)c2)c1=O (single isomer, unassigned) [Compound I-423]
EC50 (SARS-CoV-2; [2]): < 100 nM | IC50 [1]: < 10 nM

C[C@@H](C#N)n1c(N2CC[C@@](O)(C(F)F)C2)c(-c2ccc(F)c(C#N)c2)c(=O)n(-c2cncc(Cl)c2)c1=O (single isomer, unassigned) [Compound I-427]
EC50 (SARS-CoV-2; [2]): < 100 nM | IC50 [1]: < 10 nM

C[C@@H](C#N)n1c(N2CC[C@@](O)(C(F)F)C2)c(-c2ccc(F)c(C(F)F)c2)c(=O)n(-c2cncc(Cl)c2)c1=O (single isomer, unassigned) [Compound I-428]
EC50 (SARS-CoV-2; [2]): < 100 nM | IC50 [1]: < 10 nM

C[C@](O)(CCc1c(-c2ccc(F)c(Cl)c2)c(=O)n(-c2cncc(C#N)c2)c(=O)n1CC#N)C(F)F (single isomer, unassigned) [Compound I-429]
EC50 (SARS-CoV-2; [2]): < 100 nM | IC50 [1]: < 10 nM

C[C@@](O)(CCc1c(-c2ccc(F)c(Cl)c2)c(=O)n(-c2cncc(C#N)c2)c(=O)n1CC#N)C(F)F (single isomer, unassigned) [Compound I-430]
EC50 (SARS-CoV-2; [2]): < 100 nM | IC50 [1]: < 10 nM

C[C@@H](C#N)n1c(N2CC[C@](O)(C(F)F)C2)c(-c2ccc(F)c(Cl)c2)c(=O)n(-c2cncc(Cl)c2)c1=O (single isomer, unassigned) [Compound I-431]
EC50 (SARS-CoV-2; [2]): < 100 nM | IC50 [1]: < 10 nM

C[C@@H](C#N)n1c(N2CC[C@@](O)(C(F)F)C2)c(-c2ccc(F)c(C(F)F)c2)c(=O)n(-c2cncc(C#N)c2)c1=O (single isomer, unassigned) [Compound I-432]
EC50 (SARS-CoV-2; [2]): < 100 nM | IC50 [1]: < 10 nM

C[C@@H](C#N)n1c(N2CC[C@@](O)(C(F)F)C2)c(-c2ccc(F)c(Cl)c2)c(=O)n(-c2cncc(C#N)c2)c1=O (single isomer, unassigned) [Compound I-433]
EC50 (SARS-CoV-2; [2]): < 100 nM | IC50 [1]: < 10 nM

C[C@@H](C#N)n1c(N2CC[C@](O)(C(F)F)C2)c(-c2ccc(F)c(F)c2)c(=O)n(-c2cncc(Cl)c2)c1=O (single isomer, unassigned) [Compound I-434]
EC50 (SARS-CoV-2; [2]): < 100 nM | IC50 [1]: < 10 nM

CN1C[C@@H]2CN(c3c(Cc4cc(F)c(F)c(F)c4)c(=O)n(Cc4ncn(C)n4)c(=O)n3CC#N)C[C@@H]2C1 [Compound I-003]
EC50 (SARS-CoV-2; [4]): 1000 to 5000 nM | IC50 [1]: > 100 nM

Cn1cnc(Cn2c(=O)c(Cc3cc(F)c(F)c(F)c3)c(-c3cc4ccccc4s3)n(CC#N)c2=O)n1 [Compound I-005]
EC50 (SARS-CoV-2; [4]): 100 to 1000 nM | IC50 [1]: > 100 nM

Cn1cnc(Cn2c(=O)c(Cc3cc(F)c(F)c(F)c3)c(N3CCc4ccccc4C3)n(CC#N)c2=O)n1 [Compound I-006]
EC50 (SARS-CoV-2; [4]): 100 to 1000 nM | IC50 [1]: > 100 nM

N#CCn1c(N2CC3(CCOC3)C2)c(Cc2cc(F)c(F)c(F)c2)c(=O)n(-c2cncnc2)c1=O [Compound I-007]
EC50 (SARS-CoV-2; [4]): 100 to 1000 nM | IC50 [1]: > 100 nM

Cn1cnc(Cn2c(=O)c(Cc3cc(F)c(F)c(F)c3)c(N3Cc4ccccc4C3)n(CC#N)c2=O)n1 [Compound I-008]
EC50 (SARS-CoV-2; [4]): 100 to 1000 nM | IC50 [1]: > 100 nM

COc1ccc(Oc2c(-c3cccc4ccccc34)c(=O)n(-c3cncc(C)c3)c(=O)n2CC#N)cc1 [Compound I-009]
EC50 (SARS-CoV-2; [4]): 100 to 1000 nM | IC50 [1]: > 100 nM

Cc1cncc(-n2c(=O)c(Oc3cc(F)c(F)c(F)c3)c(Oc3cc(F)c(F)c(F)c3)n(CC#N)c2=O)c1 [Compound I-010]
EC50 (SARS-CoV-2; [4]): 1000 to 5000 nM | IC50 [1]: > 100 nM

Cc1cncc(-n2c(=O)c(C(=O)c3cc(F)c(F)c(F)c3)c(-c3cc4ccccc4s3)n(CC#N)c2=O)c1 [Compound I-011]
EC50 (SARS-CoV-2; [5]): < 100 nM | IC50 [1]: 10 to 100 nM

Cc1cncc(-n2c(=O)c(Cc3cc(F)c(F)c(F)c3)c(-c3cccc(C#N)c3)n(CC#N)c2=O)c1 [Compound I-012]
EC50 (SARS-CoV-2; [5]): < 100 nM | IC50 [1]: 10 to 100 nM

Cc1cncc(-n2c(=O)c(Oc3ccccc3)c(N3Cc4ccccc4C3)n(CC#N)c2=O)c1 [Compound I-014]
EC50 (SARS-CoV-2; [3]): 17 nM | IC50 [1]: 5.1 nM

Cc1cncc(-n2c(=O)c(-c3ccc(F)c(Cl)c3)c(Cl)n(CC#N)c2=O)c1 [Compound I-015]
EC50 (SARS-CoV-2; [4]): 100 to 1000 nM | IC50 [1]: < 10 nM

Cc1cncc(-n2c(=O)c(-c3cccc4ccccc34)c(N3Cc4cn[nH]c4C3)n(CC#N)c2=O)c1 [Compound I-016]
EC50 (SARS-CoV-2; [4]): < 100 nM | IC50 [1]: < 10 nM

Cc1cncc(-n2c(=O)c(-c3ccc(F)c(Cl)c3)c(-c3cnc4ccccc4c3)n(CC#N)c2=O)c1 [Compound I-017]
EC50 (SARS-CoV-2; [4]): < 100 nM | IC50 [1]: < 10 nM

Cc1cncc(-n2c(=O)c(Oc3cc(F)c(F)c(F)c3)c(-c3cc4ccccc4s3)n(CC#N)c2=O)c1 [Compound I-018]
EC50 (SARS-CoV-2; [4]): < 100 nM | IC50 [1]: < 10 nM

Cc1cncc(-n2c(=O)c(Cc3cc(F)c(F)c(F)c3)c(-c3cc4ccccc4s3)n(CC#N)c2=O)c1 [Compound I-019]
EC50 (SARS-CoV-2; [4]): < 100 nM | IC50 [1]: < 10 nM

Cc1cncc(-n2c(=O)c(-c3ccc(F)c(Cl)c3)c(-c3cc4ccccc4s3)n(CC#N)c2=O)c1 [Compound I-020]
EC50 (SARS-CoV-2; [4]): < 100 nM | IC50 [1]: < 10 nM

N#CCn1c(N2CC3(CCCO3)C2)c(-c2ccc(F)c(Cl)c2)c(=O)n(-c2cncc(Cl)c2)c1=O [Compound I-021]
EC50 (SARS-CoV-2; [4]): < 100 nM | IC50 [1]: < 10 nM

Cc1cncc(-n2c(=O)c(-c3ccc(F)c(Cl)c3)c(-c3cnc(C)nc3)n(CC#N)c2=O)c1 [Compound I-022]
EC50 (SARS-CoV-2; [4]): < 100 nM | IC50 [1]: < 10 nM

Cc1cncc(-n2c(=O)c(-c3ccc(F)c(Cl)c3)c(N3Cc4ccccc4C3=O)n(CC#N)c2=O)c1 [Compound I-023]
EC50 (SARS-CoV-2; [4]): < 100 nM | IC50 [1]: < 10 nM

Cc1cncc(-n2c(=O)c(-c3ccc(F)c(Cl)c3)c(N(C)Cc3ccccc3)n(CC#N)c2=O)c1 [Compound I-025]
EC50 (SARS-CoV-2; [4]): < 100 nM | IC50 [1]: < 10 nM

Cc1cncc(-n2c(=O)c(-c3ccc(F)c(Cl)c3)c(-c3cc4ccccc4[nH]3)n(CC#N)c2=O)c1 [Compound I-026]
EC50 (SARS-CoV-2; [4]): < 100 nM | IC50 [1]: < 10 nM

Cc1cncc(-n2c(=O)c(-c3ccc(F)c(Cl)c3)c(-c3ccc(C(=O)OC(C)(C)C)cc3)n(CC#N)c2=O)c1 [Compound I-027]
EC50 (SARS-CoV-2; [4]): 100 to 1000 nM | IC50 [1]: > 100 nM

Cc1cncc(-n2c(=O)c(-c3ccc(F)c(Cl)c3)c(Oc3cccc4[nH]ccc34)n(CC#N)c2=O)c1 [Compound I-028]
EC50 (SARS-CoV-2; [4]): < 100 nM | IC50 [1]: < 10 nM

Cc1cncc(-n2c(=O)c(-c3ccc(F)c(Cl)c3)c(Oc3cccc4ccccc34)n(CC#N)c2=O)c1 [Compound I-029]
EC50 (SARS-CoV-2; [4]): < 100 nM | IC50 [1]: < 10 nM
